“And” between values parts separate entries of the source, which are not always exact repeats. Equal entries are not always repeated. Where two headings read alike, the source gives them in different places.
Experiments:
Format in all cases: binding
[1] = target: T1, CHRM1 (Homo sapiens, UniProt P11229); assay: NanoBRET screen HiBiT-CHRM1 in HEK293
T1 construct: purchased Promega (in-house HiBiT-GPCR construct library, NanoBRET)
T1 sequence (P11229 1-460): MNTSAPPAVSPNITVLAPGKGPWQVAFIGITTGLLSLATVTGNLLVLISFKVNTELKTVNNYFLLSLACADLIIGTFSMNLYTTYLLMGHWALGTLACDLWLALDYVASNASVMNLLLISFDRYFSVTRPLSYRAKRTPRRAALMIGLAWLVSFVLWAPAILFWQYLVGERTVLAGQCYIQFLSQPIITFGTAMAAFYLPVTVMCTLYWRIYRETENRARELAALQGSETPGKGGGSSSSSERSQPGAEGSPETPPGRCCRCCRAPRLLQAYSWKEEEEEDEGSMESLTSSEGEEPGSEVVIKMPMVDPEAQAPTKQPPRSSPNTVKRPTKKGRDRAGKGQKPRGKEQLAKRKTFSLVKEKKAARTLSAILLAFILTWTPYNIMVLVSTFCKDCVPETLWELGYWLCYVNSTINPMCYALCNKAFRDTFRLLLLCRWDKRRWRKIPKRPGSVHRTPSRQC

[2] = target: T2, CHRM3 (Homo sapiens, UniProt P20309); assay: NanoBRET screen HiBiT-CHRM3 in HEK293
T2 construct: purchased Promega (in-house HiBiT-GPCR construct library, NanoBRET)

[3] = target: T3, FZD10 (Homo sapiens, UniProt Q9ULW2); assay: NanoBRET screen HiBiT-FZD10 in HEK293
T3 construct: purchased Promega (in-house HiBiT-GPCR construct library, NanoBRET)
T3 sequence (Q9ULW2 21-581): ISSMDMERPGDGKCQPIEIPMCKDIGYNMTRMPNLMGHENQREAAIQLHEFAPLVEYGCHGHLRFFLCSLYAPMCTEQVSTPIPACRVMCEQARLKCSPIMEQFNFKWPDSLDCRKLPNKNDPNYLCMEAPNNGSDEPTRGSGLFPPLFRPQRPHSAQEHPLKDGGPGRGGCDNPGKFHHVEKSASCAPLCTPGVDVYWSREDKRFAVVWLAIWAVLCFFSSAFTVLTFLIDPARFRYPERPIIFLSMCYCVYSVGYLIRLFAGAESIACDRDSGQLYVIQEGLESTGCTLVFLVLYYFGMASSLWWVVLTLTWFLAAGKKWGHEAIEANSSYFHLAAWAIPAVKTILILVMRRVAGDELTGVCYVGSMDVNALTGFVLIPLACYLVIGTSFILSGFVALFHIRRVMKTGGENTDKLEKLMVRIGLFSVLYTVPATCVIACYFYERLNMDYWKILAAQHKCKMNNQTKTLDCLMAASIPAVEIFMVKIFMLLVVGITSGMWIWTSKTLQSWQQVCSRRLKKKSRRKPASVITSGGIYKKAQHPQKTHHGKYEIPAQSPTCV
Experimental: (§1) Each tracer candidate was screened across the entire library of HiBiT-GPCR constructs using NanoBRET as the detection modality. As depicted in Figure 4A, the specificity of interactions was evaluated through decrease in BRET due to competitive displacement of a bound tracer by excess parental compound. Each tracer was analyzed for binding to each HiBiT-GPCR fusion in the absence and in the presence of competing parental compound. Briefly, HEK293 cells were transfected with HiBiT-GPCR constructs diluted into promoterless DNA to reduce expression and maximize translocation to the cell surface. Each tracer candidate was then screened at concentrations of 1 μM and 0.1 μM across cells expressing these fusions. Cells were treated for 1.5 h with tracer either alone or in the presence of 20 μM competing parental compound (i.e., control). BRET was measured upon addition of purified LgBiT and subsequent complementation with HiBiT genetically fused to a GPCR. The specificity of interactions was assessed through a decrease in BRET signal due to competitive displacement of the bound tracer. To further gauge the robustness of these interactions, the fold response over the control (i.e., BRETtracer/BRETcontrol) was calculated. We chose a 1.5-fold response, which translates to ≥7-fold signal over noise as the minimal threshold required to score an interaction as positive.
(§2) HiBiT-GPCR DNA constructs were diluted in 10 mM Tris pH 8 to a final concentration of 0.01 μg/μL, arrayed in 96-well plates and stored at −20 °C. For transfection, HEK293 cells were suspended in Opti-MEM (without phenol red) supplemented with 2% fetal bovine serum (Seradigm) and 100 units/mL penicillin–streptomycin (Gibco) at a final concentration of 220,000 cells/mL and dispensed into white 96-well plates at 90 μL/well. Subsequent transfections and screens were carried using an Agilent Bravo Automated Liquid Handling Platform. First, the 96-well HiBiT DNA arrays were diluted 25-fold in Opti-MEM (without serum or phenol red) to a final concentration of 0.0004 μg/μL and 20 μL of the diluted DNAs were transferred into new 96-well plates. Next, promoterless carrier DNA (1 μg/μL) was diluted 25-fold (0.04 μg/μL) and then dispensed into the diluted arrays at 20 μL/well. Following brief mixing, Viafect transfection reagent (Promega) diluted 16-fold into Opti-MEM was dispensed into the plates at 40 μL/well. After mixing by pipetting, plates were incubated for 10 min on the pipetting station deck. The DNA-transfection reagent complexes were then added to plates containing cells. To facilitate the screen, 10 μL of DNA-transfection reagent complexes were added in duplicates to the top 4 and bottom 4 rows, resulting in two identical 48-well arrays per plate. Plates with transfected cells were incubated for 18–20 h at 37 °C/5% CO2. A screen of each tracer across the entire library using two different concentrations requires duplicate plates of transfected cells. Depending on the number of tracers being screened, transfections can be scaled up using the same ratios. The next day, for each tracer, four 20× screening solutions in tracer dilution buffer (Promega) were prepared: two duplicates at final concentration of 20 μM and two duplicates at a final concentration of 2 μM. […] The four resulting solutions were diluted 4-fold in Opti-MEM without serum or phenol red to generate 5× solutions (5 µM and 0.5 µM tracer +/− 100 μM competing compound). To screen the library, a BioTek MultiFlo FX liquid dispenser was used to dispense 22.5 µL of tracer solution to the top 4 rows and 22.5 µL tracer + competing compound solution to the 4 bottom rows. Plates were briefly mixed on an orbital shaker and incubated for 1.5 h at room temperature. […] Plates were briefly mixed on an orbital shaker and incubated for 15 min to allow complementation.

[4] = target: T4, HRH1 (Homo sapiens, UniProt P35367); assay: NanoBRET screen HiBiT-HRH1 in HEK293
T4 construct: purchased Promega (in-house HiBiT-GPCR construct library, NanoBRET)

[5] = target: T5, MCHR2 (Homo sapiens, UniProt Q969V1); assay: NanoBRET screen HiBiT-MCHR2 in HEK293
T5 construct: purchased Promega (in-house HiBiT-GPCR construct library, NanoBRET)
Experimental: as §1, §2

T4 sequence (P35367 whole entry): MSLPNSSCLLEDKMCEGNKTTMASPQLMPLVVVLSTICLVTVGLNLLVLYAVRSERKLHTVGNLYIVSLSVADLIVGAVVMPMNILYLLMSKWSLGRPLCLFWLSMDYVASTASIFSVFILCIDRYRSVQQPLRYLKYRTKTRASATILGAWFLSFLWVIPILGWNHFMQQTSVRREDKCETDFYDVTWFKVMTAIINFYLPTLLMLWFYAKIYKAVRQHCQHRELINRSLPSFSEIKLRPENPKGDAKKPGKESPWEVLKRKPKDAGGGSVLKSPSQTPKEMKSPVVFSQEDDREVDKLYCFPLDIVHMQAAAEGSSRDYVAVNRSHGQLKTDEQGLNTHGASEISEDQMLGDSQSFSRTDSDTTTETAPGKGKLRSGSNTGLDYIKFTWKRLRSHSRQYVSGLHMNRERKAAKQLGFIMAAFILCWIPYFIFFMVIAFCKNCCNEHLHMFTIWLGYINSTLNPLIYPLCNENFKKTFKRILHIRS
T2 sequence (P20309 whole entry): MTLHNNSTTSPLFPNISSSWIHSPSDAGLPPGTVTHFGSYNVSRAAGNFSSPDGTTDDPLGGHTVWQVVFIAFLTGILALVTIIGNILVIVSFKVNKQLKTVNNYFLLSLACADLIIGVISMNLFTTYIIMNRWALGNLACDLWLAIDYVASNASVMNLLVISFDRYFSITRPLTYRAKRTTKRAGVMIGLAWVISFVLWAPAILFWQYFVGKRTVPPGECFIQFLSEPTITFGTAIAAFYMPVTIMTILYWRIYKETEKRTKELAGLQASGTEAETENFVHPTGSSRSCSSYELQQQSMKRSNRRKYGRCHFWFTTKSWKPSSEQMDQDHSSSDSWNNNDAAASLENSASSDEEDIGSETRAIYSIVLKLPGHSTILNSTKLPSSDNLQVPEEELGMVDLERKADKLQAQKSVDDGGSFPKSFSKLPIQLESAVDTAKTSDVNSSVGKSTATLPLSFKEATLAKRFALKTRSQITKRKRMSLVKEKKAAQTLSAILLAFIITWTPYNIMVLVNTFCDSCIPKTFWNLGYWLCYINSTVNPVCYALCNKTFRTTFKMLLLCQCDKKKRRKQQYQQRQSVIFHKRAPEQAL
T5 sequence (Q969V1 whole entry): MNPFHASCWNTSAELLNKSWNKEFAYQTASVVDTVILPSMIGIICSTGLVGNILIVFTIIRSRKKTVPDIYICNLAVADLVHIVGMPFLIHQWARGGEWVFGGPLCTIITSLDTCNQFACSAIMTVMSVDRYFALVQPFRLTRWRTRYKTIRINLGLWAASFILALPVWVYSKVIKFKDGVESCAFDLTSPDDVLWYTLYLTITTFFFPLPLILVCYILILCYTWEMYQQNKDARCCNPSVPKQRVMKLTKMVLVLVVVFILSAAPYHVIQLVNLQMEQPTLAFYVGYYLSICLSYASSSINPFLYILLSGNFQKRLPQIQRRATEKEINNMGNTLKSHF

Compound	NanoBRET Fold Response [1]	NanoBRET Fold Response ([3]; FZD10, tracer 0.1μM)	NanoBRET Fold Response ([3]; FZD10, tracer 1μM)	NanoBRET Fold Response ([5]; MCHR2, tracer 0.1μM)	NanoBRET Fold Response ([5]; MCHR2, tracer 1μM)	NanoBRET Fold Response ([1]; CHRM1, tracer 1μM)	NanoBRET Fold Response ([2]; CHRM3, tracer 1μM)	NanoBRET Fold Response ([4]; HRH1, tracer 0.1μM)	NanoBRET Fold Response ([4]; HRH1, tracer 1μM)	NanoBRET Fold Response ([2]; CHRM3, tracer 0.1μM)	also measured
COc1ccc2[nH]c(-c3ccc(CNC(=O)CCOCCOCCOCCOCCNC(=O)CCc4ccc5n4[B-](F)(F)[N+]4=C(c6ccc[nH]6)C=CC4=C5)cc3)c(CCNC(C)=O)c2n1 [AzomelatoninICO9-2-NB590]											NanoBRET Fold Response ([1]; 0.1μM tracer): 1.20; NanoBRET Fold Response ([1]; 1μM tracer): 0.97; NanoBRET Fold Response ([2]; 0.1μM tracer): 0.95; NanoBRET Fold Response ([2]; 1μM tracer): 1.01; NanoBRET Fold Response ([3]; 0.1μM tracer): 0.96; NanoBRET Fold Response ([3]; 1μM tracer): 0.89; NanoBRET Fold Response ([4]; 0.1μM tracer): 0.94; NanoBRET Fold Response ([4]; 1μM tracer): 0.89; NanoBRET Fold Response ([5]; 0.1μM tracer): 1.29; NanoBRET Fold Response ([5]; 1μM tracer): 1.43
O=C(CCOCCOCCOCCOCCNC(=O)CCc1ccc2n1[B-](F)(F)[N+]1=C(c3ccc[nH]3)C=CC1=C2)NCCCN1CCN(C2=Nc3cc(Cl)ccc3Nc3ccccc32)CC1 [Clozapine-a-2-NB590]											NanoBRET Fold Response ([1]; CHRM1, 0.1μM tracer): 1.09; NanoBRET Fold Response ([1]; CHRM1, 1μM tracer): 0.98; NanoBRET Fold Response ([2]; CHRM3, 0.1μM tracer): 1.06; NanoBRET Fold Response ([2]; CHRM3, 1μM tracer): 0.92; NanoBRET Fold Response ([3]; FZD10, 0.1μM tracer): 1.01; NanoBRET Fold Response ([3]; FZD10, 1μM tracer): 0.99; NanoBRET Fold Response ([4]; HRH1, 0.1μM tracer): 4.67; NanoBRET Fold Response ([4]; HRH1, 1μM tracer): 4.78; NanoBRET Fold Response ([5]; MCHR2, 0.1μM tracer): 0.98; NanoBRET Fold Response ([5]; MCHR2, 1μM tracer): 1.37
O=C(CCOCCOCCOCCOCCNC(=O)CCc1ccc2n1[B-](F)(F)[N+]1=C(c3ccc[nH]3)C=CC1=C2)NCCCN1CCN(C2=Nc3ccccc3Oc3ccc(Cl)cc32)CC1 [Loxapine-a-2-NB590]	0.90 and 1.14	0.98	0.99	1.02	1.12						NanoBRET Fold Response [2]: 0.96 and 1.07; NanoBRET Fold Response [4]: 3.64 and 4.76
COc1ccccc1N1CCN(CCCCN2C(=O)c3ccc(CNC(=O)CCOCCOCCOCCOCCNC(=O)CCc4ccc5n4[B-](F)(F)[N+]4=C(c6ccc[nH]6)C=CC4=C5)cc3C2=O)CC1 [NAN-190-2-NB590]	1.02	0.99	1.04	0.99	0.94	1.16	0.99	2.49	2.31		
COc1ccccc1N1CCN(CCCCN2C(=O)c3ccc(CNC(=O)CCOCCNC(=O)c4ccc(CNC(=O)CCc5ccc6n5[B-](F)(F)[N+]5=C(c7ccc[nH]7)C=CC5=C6)cc4)cc3C2=O)CC1 [NAN-190-3-NB590]		0.92	0.79	1.09	0.72	0.92	1.12	2.18	1.84	1.10	NanoBRET Fold Response ([1]; CHRM1, tracer 0.1μM): 0.89
CC(C)N(CC[C@H](c1ccccc1)c1cc(CCNC(=O)CCOCCOCCOCCOCCNC(=O)CCc2ccc3n2[B-](F)(F)[N+]2=C(c4ccc[nH]4)C=CC2=C3)ccc1O)C(C)C [Tolterodine-2-NB590]	1.59 and 2.16		1.05	1.59	1.08		1.52	1.08	1.58	1.67	
CC(C)N(CC[C@H](c1ccccc1)c1cc(CCNC(=O)c2ccc(CNC(=O)CCc3ccc4n3[B-](F)(F)[N+]3=C(c5ccc[nH]5)C=CC3=C4)cc2)ccc1O)C(C)C [Tolterodine-BZ-NB590]	2.14 and 2.47	0.97	1.06	0.93	1.02		1.25	0.99	1.10	1.18	
CCCn1c(=O)c2[nH]c(-c3ccc(OCC(=O)NCCNC(=O)CCOCCNC(=O)c4ccc(CNC(=O)CCc5ccc6n5[B-](F)(F)[N+]5=C(c7ccc[nH]7)C=CC5=C6)cc4)cc3)nc2n(CCC)c1=O [XAC-3-NB590]		1.05	0.99	0.96	0.97	0.99	1.29	0.95	1.24	0.90	NanoBRET Fold Response ([1]; CHRM1, tracer 0.1μM): 1.11

Reference: paper PMC8151276, “An Integrated Approach toward NanoBRET Tracers for Analysis of GPCR Ligand Engagement” (Molecules, 2021)
